Holding throughout (assay): stopped-flow CO2 hydrase assay
Common to all, as to format: biochemical

The target of one experiment is T1, hCA XII (Homo sapiens, UniProt O43570).
T1 construct: gene CA12; recombinant, made in-house
An excerpt:
stopped-flow CO2 hydrase assay on hCA XII

In a further experiment the target is T2, hCA II (Homo sapiens, UniProt P00918).
T2 construct: gene CA2; purchased from Merck; cytosolic isoform; construct not described
An excerpt:
stopped-flow CO2 hydrase assay on hCA II

The target in a further experiment is T3, hCA I (Homo sapiens, UniProt P00915).
T3 construct: gene CA1; purchased from Merck; cytosolic isoform; construct not described
T3 sequence (P00915 2-261): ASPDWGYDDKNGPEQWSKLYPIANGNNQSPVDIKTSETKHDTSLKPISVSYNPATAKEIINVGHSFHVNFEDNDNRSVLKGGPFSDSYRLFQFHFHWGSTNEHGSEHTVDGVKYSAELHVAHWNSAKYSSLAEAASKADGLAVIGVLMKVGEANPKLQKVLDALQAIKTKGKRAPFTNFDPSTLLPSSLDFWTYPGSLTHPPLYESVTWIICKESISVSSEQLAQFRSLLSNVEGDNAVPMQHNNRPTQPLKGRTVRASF
An excerpt: stopped-flow CO2 hydrase assay on hCA I

The target of a further experiment is T4, hCA IX (Homo sapiens, UniProt Q16790).
T4 construct: gene CA9; recombinant, made in-house
An excerpt:
stopped-flow CO2 hydrase assay on hCA IX

Setting [1] is: CO2 substrate; […] HEPES pH […] Na2SO4, […] min preincubation at room temperature.

Like-named read-outs stand apart in the source and are kept apart here.

T1 sequence (O43570 25-354 limits assumed): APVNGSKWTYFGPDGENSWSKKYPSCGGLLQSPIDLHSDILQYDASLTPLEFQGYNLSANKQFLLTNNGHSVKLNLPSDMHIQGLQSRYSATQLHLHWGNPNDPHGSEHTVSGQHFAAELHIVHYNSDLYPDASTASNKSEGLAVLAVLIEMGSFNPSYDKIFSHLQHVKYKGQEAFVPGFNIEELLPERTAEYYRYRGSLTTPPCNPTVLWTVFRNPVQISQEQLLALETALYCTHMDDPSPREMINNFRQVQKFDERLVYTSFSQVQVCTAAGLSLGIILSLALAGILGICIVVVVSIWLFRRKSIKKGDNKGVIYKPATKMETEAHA

With `NS(=O)(=O)c1cc(C(=O)O)c(Cl)cc1Cl` [compound 1, 2,4‐dichloro‐5‐sulfamoylbenzoic acid], the Ki (as a rule, a dissociation constant, usually derived from enzyme kinetics or from competition with a known ligand) was found to be 7.5 nM at hCA XII (setting [1]), 0.33 nM at hCA II (setting [1]), 0.52 nM on hCA I (setting [1]) and 2.6 nM on hCA IX (setting [1]).

As for `CC(C)(C)OC(=O)N1CCN(C(=O)c2cc(S(N)(=O)=O)c(Cl)cc2Cl)CC1` [compound 2, Tert‐butyl 4‐[(2,4‐dichloro‐5‐sulfamoylphenyl)carbonyl]piperazine‐1‐carboxylate], the Ki at hCA XII came out at 50.1 nM; at hCA II, 3.9 nM; at hCA I, 85.7 nM; on hCA IX, 40.1 nM.

Consider `NS(=O)(=O)c1cc(C(=O)N2CCN(S(=O)(=O)c3ccccc3)CC2)c(Cl)cc1Cl` [compound 4, 2,4‐dichloro‐5‐{[4‐(phenylsulfonyl)piperazin‐1‐yl]carbonyl}benzenesulfonamide], for which the Ki on hCA XII came to 7.1 nM; at hCA II, 7.4 nM; at hCA I, 9.4 nM; at hCA IX, 39.7 nM.

Take `Cc1ccc(S(=O)(=O)N2CCN(C(=O)c3cc(S(N)(=O)=O)c(Cl)cc3Cl)CC2)cc1` [compound 5, 2,4‐dichloro‐5‐({4‐[(4‐methylphenyl)sulfonyl]piperazin‐1‐yl}carbonyl)benzenesulfonamide]: the Ki on hCA XII was determined as 62.4 nM; at hCA II it was 29 nM; on hCA I, 64 nM; at hCA IX, 340 nM.

As for `COc1ccc(S(=O)(=O)N2CCN(C(=O)c3cc(S(N)(=O)=O)c(Cl)cc3Cl)CC2)cc1` [compound 6, 2,4‐dichloro‐5‐({4‐[(4‐methoxyphenyl)sulfonyl]piperazin‐1‐yl}carbonyl)benzenesulfonamide], the Ki at hCA XII was 11.6 nM; at hCA II, 2.8 nM; at hCA I, 9.1 nM; at hCA IX, 40.6 nM.

For the molecule `NS(=O)(=O)c1cc(C(=O)N2CCN(S(=O)(=O)c3ccc(Cl)cc3)CC2)c(Cl)cc1Cl` [compound 7, 2,4‐dichloro‐5‐({4‐[(4‐chlorophenyl)sulfonyl]piperazin‐1‐yl}carbonyl)benzenesulfonamide], the Ki at hCA XII is 5.2 nM; at hCA II, 3.4 nM; on hCA I, 8.2 nM; on hCA IX, 35.8 nM.

For `NS(=O)(=O)c1cc(C(=O)N2CCN(S(=O)(=O)c3ccc([N+](=O)[O-])cc3)CC2)c(Cl)cc1Cl` [compound 8, 2,4‐dichloro‐5‐({4‐[(4‐nitrophenyl)sulfonyl]piperazin‐1‐yl}carbonyl)benzenesulfonamide], the Ki at hCA XII turned out to be 7.9 nM; on hCA II, 71.2 nM; on hCA I it was 79.9 nM; at hCA IX, 39.4 nM.

Regarding `Nc1ccc(S(=O)(=O)N2CCN(C(=O)c3cc(S(N)(=O)=O)c(Cl)cc3Cl)CC2)cc1` [compound 9, 5‐({4‐[(4‐aminophenyl)sulfonyl]piperazin‐1‐yl}carbonyl)‐2,4‐dichlorobenzenesulfonamide], the Ki on hCA XII is 6.9 nM; on hCA II, 2.6 nM; on hCA I, 5.7 nM; on hCA IX it was 152 nM.

`CC(=O)Nc1ccc(S(=O)(=O)N2CCN(C(=O)c3cc(S(N)(=O)=O)c(Cl)cc3Cl)CC2)cc1` [compound 10, 5‐({4‐[(4‐acetylaminophenyl)sulfonyl]piperazin‐1‐yl}carbonyl)‐2,4‐dichlorobenzenesulfonamide]: the Ki on hCA XII turned out to be 7.2 nM; at hCA II, 5.4 nM; at hCA I it was 8 nM; on hCA IX it was 40.4 nM.

In the case of `NS(=O)(=O)c1cc(C(=O)N2CCN(S(=O)(=O)c3cccc([N+](=O)[O-])c3)CC2)c(Cl)cc1Cl` [compound 11, 2,4‐dichloro‐5‐({4‐[(3‐nitrophenyl)sulfonyl]piperazin‐1‐yl}carbonyl)benzenesulfonamide], the Ki on hCA XII turned out to be 7.8 nM; at hCA II it was 6.6 nM; on hCA I, 6.2 nM; at hCA IX it was 37.7 nM.

With `Nc1cccc(S(=O)(=O)N2CCN(C(=O)c3cc(S(N)(=O)=O)c(Cl)cc3Cl)CC2)c1` [compound 12, 5‐({4‐[(3‐aminophenyl)sulfonyl]piperazin‐1‐yl}carbonyl)‐2,4‐dichlorobenzenesulfonamide], the Ki was found to be 5.4 nM at hCA XII, 0.8 nM at hCA II, 5.8 nM at hCA I and 26.3 nM at hCA IX.

Turning to `NS(=O)(=O)c1cc(C(=O)N2CCN(S(=O)(=O)c3ccccc3[N+](=O)[O-])CC2)c(Cl)cc1Cl` [compound 13, 2,4‐dichloro‐5‐({4‐[(2‐nitrophenyl)sulfonyl]piperazin‐1‐yl}carbonyl)benzenesulfonamide], the Ki came to 7.2 nM on hCA XII, 0.3 nM on hCA II, 7.8 nM on hCA I and 28.9 nM on hCA IX.

As to `Nc1ccccc1S(=O)(=O)N1CCN(C(=O)c2cc(S(N)(=O)=O)c(Cl)cc2Cl)CC1` [compound 14, 5‐({4‐[(2‐aminophenyl)sulfonyl]piperazin‐1‐yl}carbonyl)‐2,4‐dichlorobenzenesulfonamide], the Ki at hCA XII was found to be 9.6 nM; at hCA II, 2.8 nM; on hCA I, 5.4 nM; at hCA IX it was 11.4 nM.

In the case of `NS(=O)(=O)c1cc(C(=O)N2CCN(S(=O)(=O)c3ccc(Cl)c(Cl)c3)CC2)c(Cl)cc1Cl` [compound 15, 2,4‐dichloro‐5‐({4‐[(3,4‐dichlorophenyl)sulfonyl]piperazin‐1‐yl}carbonyl)benzenesulfonamide], the Ki turned out to be 9.1 nM on hCA XII, 5.7 nM at hCA II, 7.1 nM at hCA I and 39 nM on hCA IX.

Take `NS(=O)(=O)c1cc(C(=O)N2CCN(S(=O)(=O)Cc3ccccc3)CC2)c(Cl)cc1Cl` [compound 16, 5‐{[4‐(benzylsulfonyl)piperazin‐1‐yl]carbonyl}‐2,4‐dichlorobenzenesulfonamide]: the Ki was found to be 0.87 nM at hCA XII, 0.07 nM on hCA II, 0.54 nM on hCA I and 273 nM on hCA IX.

The values above are taken from article PMC11648825, “Lasamide Containing Sulfonylpiperazines as Effective Agents for the Management of Glaucoma Associated Symptoms” (Chemmedchem, 2024).
